{"source": "patent US20050112210A1", "about": "“Eye nutritional supplement” (priority 2003, published 2005)", "origin": "cited, not measured here"}
{"test_system": "A2E-epoxidation", "details": "singlet oxygen generated in the presence of A2E"}
{"molecule": "Cc1cc(C(C)(C)C)c(O)c(C(C)(C)C)c1", "note": "[butylated hydroxytoluene]", "effect on A2E-epoxidation": "reduced A2E-epoxidation by quenching singlet oxygen"}
{"molecule": "Oc1ccc(C=Cc2cc(O)cc(O)c2)cc1", "note": "[resveratrol]", "effect on A2E-epoxidation": "reduced A2E-epoxidation by quenching singlet oxygen"}
{"molecule": "vitamin E", "effect on A2E-epoxidation": "reduced A2E-epoxidation by quenching singlet oxygen"}
